This is an account of results in US9289388B2, “Methods and compositions for delivery of medicaments to the lungs” (Paka Pulmonary Pharmaceuticals, Inc., priority 2008, dated 2016).

The test system of one assay is mice exposed to HNE. The assay can be described thus: Bronchoalveolar lavage of the lungs following HNE exposure (lung blood cell level). It is filed as in vivo. The protocol: A total of 14 animals were used in this study. Anesthetized mice received 0.1 ml of solution delivered by a blunt tip catheter to the opening of the trachea and the animals allowed to aspirate the solution into their lungs (this method is also referred to as intratracheal instillation). All animals were exposed to the treatment for 2 hours and re-anesthetized. Bronchoalveolar lavage of the lungs was performed as described below. […] Target 2 (a potent HNE inhibitor developed by Zeneca in the early 1990s) when given with the HNE, reduced the average blood level in the lungs by 34% to 0.035 grams. Target C (the Zeneca molecule covalently attached to the N-terminus of the first 25 residues of the human surfactant B peptide) when given with the HNE reduced the average blood level in the lungs by 87% to 0.007 grams.
A set of animals was used to determine the optimal concentration of HNE for the study. […] The amount of HNE was reduced to 40 micrograms to maintain a maximal detrimental but survivable effect. The animals exposed to 40 micrograms of HNE were able to survive long enough to perform the complete study. All animals remaining in the complete study were exposed to 40 micrograms of HNE.
(§1) Target 2 (the Zeneca molecule) was given in a 70-fold molar excess relative to HNE. In the kinetic studies, Target 2 has 2 nM affinity. […] Accordingly, the Target C was given to the animals in a 100 fold molar excess relative to HNE in these studies.
Bronchio-Alveolar lavage (BAL) is performed by 1) anesthetizing the animals; 2) performing a tracheotomy on the animals and cutting open the chest and spreading the ribs to enable full lung expansion; 3) pressurizing 1 ml of PBS buffer solution into the lungs through the tracheotomy catheter; 4) sucking the solution out of the lungs; 5) centrifuging the recovered solution to separate the red blood cell fraction from the liquid fraction; and 6) weighing the red blood cell fraction.

In assay [1] the test system is mice with HNE induced emphysema. The assay can be described thus: HNE induced emphysema, intratracheal delivery, lung histology and mean linear intercept after four weeks. It is filed as in vivo. How it is done: A total of 42 animals were used in this study. Anesthesized mice received 0.1 ml of solution delivered by intratracheal instillation as described above in Example 4. Animals were divided into the following treatment groups: four animals received saline only; ten animals received HNE only; four animals received the Zeneca inhibitor (target 2) only; eight animals received HNE mixed with the Zeneca inhibitor (target 2); eight animals received Zeneca inhibitor linked to a lung surfactant peptide (target C) only; and eight animals received HNE mixed with Zeneca inhibitor linked to a lung surfactant peptide (target C). Animals receiving HNE were instilled with 40 micrograms HNE. Target 2 (Zeneca inhibitor) was administered in a 70-fold molar excess relative to HNE and Target C (Zeneca inhibitor linked to a lung surfactant peptide) was administered in a 100 fold molar excess relative to HNE as described in Example 4.
All animals were observed a four week period prior to sacrifice following IRB approved protocols and the lungs from each animal were removed for sectioning. The Hilar and central region was sectioned from the left lung and the caudal region was sectioned from the right lung of each animal. Lung sections were scored using blind-scoring by an expert as “E” for emphysema and “N” for no emphysema.
The distance between adjacent alveolar walls was also measured to quantitate the degree of lung destruction for each treatment group. Lung sections obtained from each animal were analyzed under a microscope (which is connected to a computer) and lines were drawn over the lung sections between adjacent alveolar walls. The distance along the lines was calculated to determine the average distance or mean linear intercept (MLI) between adjacent alveolar walls. An increase in the average distance between adjacent alveolar walls corresponds to an increase in lung destruction.

In the next assay the target is T1, HNE (Homo sapiens, UniProt P08246).
T1 sequence (P08246 30-267): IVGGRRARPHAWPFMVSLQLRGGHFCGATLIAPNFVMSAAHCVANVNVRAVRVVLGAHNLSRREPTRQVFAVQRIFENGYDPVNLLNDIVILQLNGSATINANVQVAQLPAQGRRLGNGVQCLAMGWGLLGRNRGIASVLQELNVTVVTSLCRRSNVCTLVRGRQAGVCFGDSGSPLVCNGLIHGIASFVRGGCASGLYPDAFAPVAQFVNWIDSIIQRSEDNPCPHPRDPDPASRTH
The assay can be described thus: kinetic studies of HNE inhibition. It is filed as biochemical. The protocol: as §1

[2] abbreviates: given with 40 micrograms HNE by intratracheal instillation, 2 hours, weight of BAL red blood cell fraction.
[3] abbreviates: HNE mixed with compound, four weeks, blind scoring.

Regarding Target C (FPIPLPYCWLCRALIKRIQAMIPKG), in the assay on mice exposed to HNE (setting [2]), the “Lung Blood Cell Level, Group mean” value was 0.007 g; the “Lung Blood Cell Level, Mouse group 1” value worked out at 0 g; the “Lung Blood Cell Level, Mouse group 2” value worked out at 0.007 g; the “Lung Blood Cell Level, Mouse group 3” value came out at 0.014 g. The “average blood level in the lungs” value in the assay on mice exposed to HNE (given with the HNE, 2 hours, HNE alone 0.053 grams) was found to be 0.007 grams. For the same substance, the “reduction of the average blood level in the lungs” value with mice exposed to HNE (given with the HNE, versus HNE alone) is 87%. The “MLI (mean linear intercept between adjacent alveolar walls)” value in assay [1] (HNE (40 micrograms) mixed with compound, intratracheal, four weeks, saline only 44.40, HNE only 51.45) is listed as 45.82 μm. The “effect on HNE induced emphysema by MLI” value in assay [1] (HNE + compound, compared to HNE only and saline only) was “strongly inhibited HNE induced emphysema”. Further, in assay [1] (setting [3]), the “effect on HNE induced emphysema, lung histology sections” value is “strongly inhibited HNE induced emphysema” and the “lung histology sections compared with animals receiving saline only” value is “could not be distinguished in blind scoring”. In addition, in the assay with HNE, the “loss of potency as compared to Target 2” value is reported as “loses approximately two orders of magnitude of potency”. In addition, the Ki with HNE (read-out: affinity for HNE) is approximately 200 nM.
